Reference: publication PMC12724231, “APC24-7, a covalent combination of boronic acid and chelator moieties, restores β-lactam efficiency against metallo-β-lactamase-producers” (mSphere, 2025)
Read-outs that look alike come from different tables or passages of the source.

How the values were obtained:
Assay in all cases: microbe, parasite or virus in culture
Escherichia coli MP32-64 = test system: T1, Escherichia coli MP32-64; design: species or system E. coli E. cloni 10G; Microdilution MIC of inhibitor alone in LB, OD600 read-out, E. coli 10G without or with empty vector; conditions: MP3264, inhibitor alone
T1 construct: MP32-64
Method: (§1) Susceptibility testing of isogenic E. coli E. cloni 10G (Table 2) was determined by both the microdilution assay. […] Overnight cultures were prepared in LB supplemented with 25 mg/L chloramphenicol at 37°C under shaking at 700 rpm. The overnight cultures were diluted in PBS to 10^6 CFU/ mL, followed by inoculation in LB to ~10^5 CFU in 384-well plates (VWR, Radnor, PA, USA). Plates were prepared with twofold increasing concentrations of meropenem and cefepime ([…], respectively) to a total inoculated volume of 100 µL Plates were incubated at 37°C without shaking for 19–21 h. OD600 was determined in a SpectraMax Plus plate reader (Molecular Devices).

Escherichia coli MP21-05 = test system: T2, Escherichia coli MP21-05; design: species or system E. coli E. cloni 10G; Microdilution MIC of inhibitor alone in LB, OD600 read-out, E. coli 10G without or with empty vector; conditions: MP2105, inhibitor alone
T2 construct: MP21-05
Method: as §1

[1] = test system: T3, Klebsiella pneumoniae KresCPE0367; design: species or system clinical isolates of E. coli and K. pneumoniae; Broth microdilution MIC (CLSI), cation-adjusted Mueller-Hinton broth, visual reading, antibiotic alone against clinical isolates; conditions: Klebsiella pneumoniae, KRESCPE0367, antibiotic alone
T3 construct: KresCPE0367
Method: (§2) MICs for clinical isolates were determined in a broth microdilution assay according to Clinical and Laboratory Standards Institute (CLSI) ([75]), using cation-adjusted Mueller-Hinton broth (Thermo Fisher Scientific, Lenexa, USA). The direct colony suspension method was utilized by preparing an inoculum of an OD600 0.17, except for E. coli #36 in which 0.10 was used, which equated to a concentration of 10^8 colony-forming units (CFU) per mL. Inoculum controls were included for all assays ([76]). MICs for all clinical isolates were determined alone and in combination with inhibitors for all BLs tested, either using manually prepared plates of aztreonam, cefepime, ceftazidime, and amoxicillin or premade plates of meropenem (Sensititre), and all antibiotics tested at a twofold increasing concentration of 0.03–64 mg/L (Table 1; Table S3). Compound APC24-7 was tested at a fixed concentration of 14, 28, and 57 µM (8, 16, or 32 mg/L) with meropenem, and for all other BLs tested at the highest inhibitor concentration to be able to compare the efficiency of the BI/BLI combinations. Taniborbactam was tested at a fixed equimolar concentration (6.5, 13, and 26 mg/L) and only evaluated with meropenem. A minimum of 2–3 replicates was performed for all combinations. Assay plates were incubated at 37°C without shaking for 16–20 h, and the results were visually interpreted in accordance with EUCAST guidelines and clinical breakpoint table version 15.0 (www.eucast.org).

[2] = test system: T4, Klebsiella pneumoniae KresCPE0372; design: species or system clinical isolates of E. coli and K. pneumoniae; Broth microdilution MIC (CLSI), cation-adjusted Mueller-Hinton broth, visual reading, antibiotic alone against clinical isolates; conditions: Klebsiella pneumoniae, KRESCPE0372, antibiotic alone
T4 construct: KresCPE0372
Method: as §2

Escherichia coli #22 = test system: T5, Escherichia coli #22; design: species or system clinical isolates of E. coli and K. pneumoniae; Broth microdilution MIC (CLSI), cation-adjusted Mueller-Hinton broth, visual reading, antibiotic alone against clinical isolates; conditions: Escherichia coli, antibiotic alone
T5 construct: #22
Method: as §2

[3] = test system: T6, Klebsiella pneumoniae KresCPE0097; design: species or system clinical isolates of E. coli and K. pneumoniae; Broth microdilution MIC (CLSI), cation-adjusted Mueller-Hinton broth, visual reading, antibiotic alone against clinical isolates; conditions: Klebsiella pneumoniae, KRESCPE0097, antibiotic alone
T6 construct: KresCPE0097
Method: as §2

[4] = test system: T7, Klebsiella pneumoniae BAA1705; design: species or system clinical isolates of E. coli and K. pneumoniae; Broth microdilution MIC (CLSI), cation-adjusted Mueller-Hinton broth, visual reading, antibiotic alone against clinical isolates; conditions: Klebsiella pneumoniae, BAA1705, antibiotic alone
T7 construct: ATCC BAA-1705
Method: as §2

Escherichia coli #36 = test system: T8, Escherichia coli #36; design: species or system clinical isolates of E. coli and K. pneumoniae; Broth microdilution MIC (CLSI), cation-adjusted Mueller-Hinton broth, visual reading, antibiotic alone against clinical isolates; conditions: Escherichia coli, antibiotic alone
T8 construct: #36
Method: as §2

[5] = test system: T9, Klebsiella pneumoniae BAA-2146; design: species or system clinical isolates of E. coli and K. pneumoniae; Broth microdilution MIC (CLSI), cation-adjusted Mueller-Hinton broth, visual reading, antibiotic alone against clinical isolates; conditions: Klebsiella pneumoniae, BAA2146, antibiotic alone
T9 construct: ATCC BAA-2146
Method: as §2

[6] = test system: T10, Klebsiella pneumoniae KresCPE0353; design: species or system clinical isolates of E. coli and K. pneumoniae; Broth microdilution MIC (CLSI), cation-adjusted Mueller-Hinton broth, visual reading, antibiotic alone against clinical isolates; conditions: Klebsiella pneumoniae, KRESCPE0353, antibiotic alone
T10 construct: KresCPE0353
Method: as §2

[7] = test system: T11, Klebsiella pneumoniae K46-62; design: species or system clinical isolates of E. coli and K. pneumoniae; Broth microdilution MIC (CLSI), cation-adjusted Mueller-Hinton broth, visual reading, antibiotic alone against clinical isolates; conditions: Klebsiella pneumoniae, K4662, antibiotic alone
T11 construct: K46-62
Method: as §2

Escherichia coli #29 = test system: T12, Escherichia coli #29; design: species or system clinical isolates of E. coli and K. pneumoniae; Broth microdilution MIC (CLSI), cation-adjusted Mueller-Hinton broth, visual reading, antibiotic alone against clinical isolates; conditions: Escherichia coli, antibiotic alone
T12 construct: #29
Method: as §2

[8] = test system: T13, Klebsiella pneumoniae K66-45; design: species or system clinical isolates of E. coli and K. pneumoniae; Broth microdilution MIC (CLSI), cation-adjusted Mueller-Hinton broth, visual reading, antibiotic alone against clinical isolates; conditions: Klebsiella pneumoniae, K6645, antibiotic alone
T13 construct: K66-45
Method: as §2

[9] = test system: T14, Escherichia coli BAA-2469; design: species or system clinical isolates of E. coli and K. pneumoniae; Broth microdilution MIC (CLSI), cation-adjusted Mueller-Hinton broth, visual reading, antibiotic alone against clinical isolates; conditions: Escherichia coli, BAA2469, antibiotic alone
T14 construct: ATCC BAA-2469
Method: as §2

[10] = read-out: MIC APC24-7 (μM) / APC148*
[11] = read-out: MIC APC24-7 (μM) / Taniborbactam**
[12] = read-out: MIC FEP (mg/L) / FEP alone
[13] = read-out: MIC AZT (mg/L) / AZT alone
[14] = read-out: MIC AMX (mg/L) / AMX alone

CN(C[C@H](O)[C@@H](O)[C@H](O)[C@H](O)CO)C(=O)c1ccc(CN(Cc2ccccn2)Cc2ccccn2)nc1 [APC148] showed an MIC (Escherichia coli MP32-64; [10]) of over 906 µM and an MIC (Escherichia coli MP21-05; [10]) of over 906 µM.

For NCCN[C@H]1CC[C@H](CC(=O)N[C@H]2Cc3cccc(C(=O)O)c3OB2O)CC1 [taniborbactam], the MIC (Escherichia coli MP32-64; [11]) was over 906 µM and the MIC (Escherichia coli MP21-05; [11]) was over 906 µM.

CC(C)(O/N=C(\C(=O)N[C@@H]1C(=O)N2C(C(=O)[O-])=C(C[n+]3ccccc3)CS[C@H]12)c1csc(N)n1)C(=O)O [ceftazidime] showed an MIC ([1]; read-out: MIC) of over 64 mg/L, an MIC ([2]; read-out: MIC) of over 64 mg/L and an MIC (Escherichia coli #22; read-out: MIC) of over 64 mg/L. It also gave an MIC ([3]; read-out: MIC) of 8 mg/L, an MIC ([4]; read-out: MIC) of over 64 mg/L and an MIC (Escherichia coli #36; read-out: MIC) of over 64 mg/L. For the same compound, the MIC ([5]; read-out: MIC) was over 64 mg/L, the MIC ([6]; read-out: MIC) was over 64 mg/L and the MIC ([7]; read-out: MIC) was over 64 mg/L. For the same compound, the MIC (Escherichia coli #29; read-out: MIC) was over 64 mg/L, the MIC ([8]; read-out: MIC) was over 64 mg/L and the MIC ([9]; read-out: MIC) was over 64 mg/L.

CO/N=C(\C(=O)N[C@@H]1C(=O)N2C(C(=O)[O-])=C(C[N+]3(C)CCCC3)CS[C@H]12)c1csc(N)n1 [cefepime] showed an MIC [1, 12] of over 64 mg/L, an MIC [2, 12] of over 64 mg/L and an MIC (Escherichia coli #22; [12]) of over 64 mg/L. The MIC [3, 12] was 16 mg/L, the MIC [4, 12] was over 64 mg/L and the MIC (Escherichia coli #36; [12]) was over 64 mg/L. It also gave an MIC [5, 12] of over 64 mg/L, an MIC [6, 12] of over 64 mg/L and an MIC [7, 12] of over 64 mg/L. For the same compound, the MIC (Escherichia coli #29; [12]) was over 64 mg/L, the MIC [8, 12] was over 64 mg/L and the MIC [9, 12] was over 64 mg/L.

For C[C@H]1[C@H](NC(=O)/C(=N\OC(C)(C)C(=O)O)c2csc(N)n2)C(=O)N1S(=O)(=O)O [aztreonam], the MIC [1, 13] was over 64 mg/L, the MIC [2, 13] was 32 mg/L and the MIC (Escherichia coli #22; [13]) was over 64 mg/L. For the same compound, the MIC [3, 13] was 64 mg/L, the MIC [4, 13] was over 64 mg/L and the MIC (Escherichia coli #36; [13]) was over 64 mg/L. It also gave an MIC [5, 13] of over 64 mg/L, an MIC [6, 13] of over 64 mg/L and an MIC [7, 13] of over 64 mg/L. For the same compound, the MIC (Escherichia coli #29; [13]) was over 64 mg/L, the MIC [8, 13] was over 64 mg/L and the MIC [9, 13] was 16 mg/L.

With CC1(C)S[C@@H]2[C@H](NC(=O)[C@H](N)c3ccc(O)cc3)C(=O)N2[C@H]1C(=O)O [amoxicillin] the MIC [1, 14] was over 64 mg/L, the MIC [2, 14] was over 64 mg/L and the MIC (Escherichia coli #22; [14]) was over 64 mg/L. It also gave an MIC [3, 14] of over 64 mg/L, an MIC [4, 14] of over 64 mg/L and an MIC (Escherichia coli #36; [14]) of over 64 mg/L. For the same compound, the MIC [5, 14] was over 64 mg/L, the MIC [6, 14] was over 64 mg/L and the MIC [7, 14] was over 64 mg/L. It also gave an MIC (Escherichia coli #29; [14]) of over 64 mg/L, an MIC [8, 14] of over 64 mg/L and an MIC [9, 14] of over 64 mg/L.
